Laboratory results reported in patent US12398132B2, “Derivatives of 4-(imidazo[1,2-a]pyridin-3-yl)-n-(pyridinyl)pyrimidin-2-amine as therapeutic agents” (AUCENTRA THERAPEUTICS PTY LTD, priority 2019, dated 2025).
Read-outs that look alike come from different tables or passages of the source.

Tests used:
FLT3(ITD) = biological target: T1, FLT3(ITD) (Homo sapiens, UniProt P36888); assay: ADP Glo kinase assay, FLT3(ITD); format: biochemical; conditions: apparent Ki calculated from Km (ATP) and IC50, read-out: FLT3 inhibition Ki
T1 sequence (P36888 1-993): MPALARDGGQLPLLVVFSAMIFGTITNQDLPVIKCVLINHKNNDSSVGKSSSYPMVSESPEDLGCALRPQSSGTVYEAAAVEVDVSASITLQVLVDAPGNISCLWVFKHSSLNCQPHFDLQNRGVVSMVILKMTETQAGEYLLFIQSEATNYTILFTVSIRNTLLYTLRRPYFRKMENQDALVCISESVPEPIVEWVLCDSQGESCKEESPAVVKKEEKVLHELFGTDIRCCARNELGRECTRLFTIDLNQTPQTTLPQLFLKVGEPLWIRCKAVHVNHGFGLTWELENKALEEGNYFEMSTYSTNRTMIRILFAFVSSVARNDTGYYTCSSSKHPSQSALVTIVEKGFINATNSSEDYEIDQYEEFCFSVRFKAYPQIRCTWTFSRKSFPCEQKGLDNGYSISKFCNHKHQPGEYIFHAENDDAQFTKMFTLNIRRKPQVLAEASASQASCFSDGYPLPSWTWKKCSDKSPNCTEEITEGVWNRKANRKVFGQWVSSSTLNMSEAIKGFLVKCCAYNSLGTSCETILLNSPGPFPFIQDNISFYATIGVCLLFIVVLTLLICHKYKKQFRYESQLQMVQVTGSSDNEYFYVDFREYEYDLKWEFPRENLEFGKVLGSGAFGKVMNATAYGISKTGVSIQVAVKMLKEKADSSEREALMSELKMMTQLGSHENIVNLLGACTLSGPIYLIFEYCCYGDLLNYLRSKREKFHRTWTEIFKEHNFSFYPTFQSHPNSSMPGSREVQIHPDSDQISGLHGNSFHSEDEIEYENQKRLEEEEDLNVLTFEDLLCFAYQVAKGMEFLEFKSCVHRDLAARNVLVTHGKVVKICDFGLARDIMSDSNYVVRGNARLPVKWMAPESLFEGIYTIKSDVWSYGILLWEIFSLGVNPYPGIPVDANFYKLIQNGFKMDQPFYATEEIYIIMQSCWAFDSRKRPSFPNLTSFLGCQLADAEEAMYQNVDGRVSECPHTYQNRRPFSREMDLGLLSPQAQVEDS
Description: Inhibition of FLT3(WT), FLT3(ITD) and FLT3(D835Y) and CDKs were determined using ADP Glo Kinase assays (Promega Corporation, Madison, WI, USA). […] The kinase reactions are run for an optimised time period (FLT3-WT: 120 min, FLT3-ITD: 80 min, FLT3-D835Y: 100 min) at room temperature and then the reaction was stopped by adding 5 μL of ADP Glo reagent. […] Positive and negative controls were performed in 0.5% DMSO in the presence and absence of each FLT3 kinase, respectively. […] Half-maximal inhibition (IC50) values were calculated using a 4-parameter logistic non-linear regression model with Graphpad prism (Version 6.0). Apparent inhibition constants (Ki) values were calculated from Km (ATP) and IC50 values for the respective kinases.

U937 = assay: Proliferation assay (resazurin/MTT), U937; format: cell-based; conditions: Homo sapiens, U-937, read-out: 72 h Growth inhibition GI50, U937 cells
MV-4-11 = assay: Proliferation assay (resazurin/MTT), MV-4-11; format: cell-based; conditions: Homo sapiens, MV4-11, read-out: 72 h Growth inhibition GI50, MV-4-11 cells
CDK4/D1 = CDK4/D1 (Homo sapiens, UniProt P11802); assay: ADP Glo kinase assay, CDK4/D1; format: biochemical; conditions: CDK4D1; for remaining activity at 1 µM: compound at 1 μM (values marked *), read-out: residual enzymatic activity (%) at 1 μM*; for remaining activity at 10 µM: compound at 10 μM, read-out: residual enzymatic activity (%) at 10 μM
Description: Inhibition of FLT3(WT), FLT3(ITD) and FLT3(D835Y) and CDKs were determined using ADP Glo Kinase assays (Promega Corporation, Madison, WI, USA). […] Similarly, kinase reaction for CDK4/D1 and CDK6/D3 was performed with reaction buffer (40 nM Tris base pH 7.5, 20 mM MgCl2, 0.4 mM DTT), 0.1 mg/ml BSA and RB-CTF substrate (retinoblastoma protein1 C-terminal fraction). For CDK9/CyclinT1, the kinase reaction was performed with the standard assay buffer and Kinase Dilution Buffer and RBER-IRStide substrate. Half-maximal inhibition (IC50) values were calculated using a 4-parameter logistic non-linear regression model with Graphpad prism (Version 6.0). Apparent inhibition constants (Ki) values were calculated from Km (ATP) and IC50 values for the respective kinases.

CDK9/CyclinT1 = CDK9/CyclinT1 (Homo sapiens, UniProt P50750); assay: ADP Glo kinase assay, CDK9/CyclinT1; format: biochemical; conditions: CDK9T1; for remaining activity at 1 µM: compound at 1 μM (values marked *), read-out: residual enzymatic activity (%) at 1 μM*; for Ki: apparent Ki calculated from Km (ATP) and IC50, read-out: CDK inhibition Ki
CDK6/D3 = CDK6/D3 (Homo sapiens, UniProt Q00534); assay: ADP Glo kinase assay, CDK6/D3; format: biochemical; conditions: CDK6D3; for remaining activity at 1 µM: compound at 1 μM (values marked *), read-out: residual enzymatic activity (%) at 1 μM*; for remaining activity at 10 µM: compound at 10 μM, read-out: residual enzymatic activity (%) at 10 μM
CDK7HMAT1 = CDK7HMAT1 (Homo sapiens, UniProt P50613);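 further: kinase activity measured with an ADP-Glo luminescent kinase assay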
CDK2E1 = CDK2E1 (Homo sapiens, UniProt P24941); conditions: 1 µM
CDK1B = CDK1B (Homo sapiens, UniProt P06493)
Sequence of CDK1B (P06493 whole entry): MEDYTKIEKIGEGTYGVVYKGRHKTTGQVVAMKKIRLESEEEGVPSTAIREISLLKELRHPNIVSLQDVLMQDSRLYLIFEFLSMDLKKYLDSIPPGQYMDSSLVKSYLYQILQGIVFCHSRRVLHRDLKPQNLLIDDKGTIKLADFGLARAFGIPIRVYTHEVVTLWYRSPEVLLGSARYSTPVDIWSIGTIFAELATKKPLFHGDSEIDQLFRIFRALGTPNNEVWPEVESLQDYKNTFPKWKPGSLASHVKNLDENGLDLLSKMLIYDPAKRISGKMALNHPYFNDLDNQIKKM
Sequence of CDK1B (P14635 whole entry partner): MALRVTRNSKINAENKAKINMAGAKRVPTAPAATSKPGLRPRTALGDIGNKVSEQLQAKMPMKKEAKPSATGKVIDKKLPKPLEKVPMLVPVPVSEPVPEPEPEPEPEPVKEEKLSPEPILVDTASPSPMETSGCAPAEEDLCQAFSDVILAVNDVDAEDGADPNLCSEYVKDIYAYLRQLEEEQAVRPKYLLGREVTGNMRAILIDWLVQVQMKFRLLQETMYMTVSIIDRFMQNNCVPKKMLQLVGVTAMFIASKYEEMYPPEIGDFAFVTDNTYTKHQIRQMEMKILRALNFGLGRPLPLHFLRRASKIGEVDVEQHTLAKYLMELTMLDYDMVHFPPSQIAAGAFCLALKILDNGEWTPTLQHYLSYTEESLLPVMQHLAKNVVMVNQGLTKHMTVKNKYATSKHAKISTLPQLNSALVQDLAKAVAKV

Sequence of CDK6/D3 (Q00534 whole entry, species assumed): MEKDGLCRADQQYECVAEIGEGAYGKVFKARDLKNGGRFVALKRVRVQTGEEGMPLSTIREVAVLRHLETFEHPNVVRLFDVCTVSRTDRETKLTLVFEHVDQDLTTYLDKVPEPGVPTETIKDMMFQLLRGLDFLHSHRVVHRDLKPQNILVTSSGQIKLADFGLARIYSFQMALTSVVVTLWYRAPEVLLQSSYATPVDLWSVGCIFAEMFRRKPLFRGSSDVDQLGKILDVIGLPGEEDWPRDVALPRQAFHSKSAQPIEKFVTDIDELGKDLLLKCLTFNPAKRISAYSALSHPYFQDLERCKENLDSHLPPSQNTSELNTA
Sequence of CDK6/D3 (P30281 whole entry partner, species assumed): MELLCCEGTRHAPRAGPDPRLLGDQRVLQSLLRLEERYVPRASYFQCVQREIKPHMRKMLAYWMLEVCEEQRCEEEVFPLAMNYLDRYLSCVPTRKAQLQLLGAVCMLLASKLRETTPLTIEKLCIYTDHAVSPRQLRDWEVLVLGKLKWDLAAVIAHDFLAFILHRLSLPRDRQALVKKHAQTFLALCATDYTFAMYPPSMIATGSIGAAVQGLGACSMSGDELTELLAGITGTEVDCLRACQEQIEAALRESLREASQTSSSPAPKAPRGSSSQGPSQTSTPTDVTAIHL
Sequence of CDK7HMAT1 (P50613 whole entry): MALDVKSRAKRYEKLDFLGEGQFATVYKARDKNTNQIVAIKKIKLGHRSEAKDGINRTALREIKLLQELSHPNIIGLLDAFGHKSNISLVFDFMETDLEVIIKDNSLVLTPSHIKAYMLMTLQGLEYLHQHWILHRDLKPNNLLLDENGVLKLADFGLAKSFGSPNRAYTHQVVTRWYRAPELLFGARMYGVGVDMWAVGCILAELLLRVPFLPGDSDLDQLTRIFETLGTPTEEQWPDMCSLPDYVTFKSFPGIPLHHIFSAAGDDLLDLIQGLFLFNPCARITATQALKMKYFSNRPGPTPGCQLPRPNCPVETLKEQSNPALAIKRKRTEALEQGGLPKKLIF
Sequence of CDK7HMAT1 (P51946 whole entry partner): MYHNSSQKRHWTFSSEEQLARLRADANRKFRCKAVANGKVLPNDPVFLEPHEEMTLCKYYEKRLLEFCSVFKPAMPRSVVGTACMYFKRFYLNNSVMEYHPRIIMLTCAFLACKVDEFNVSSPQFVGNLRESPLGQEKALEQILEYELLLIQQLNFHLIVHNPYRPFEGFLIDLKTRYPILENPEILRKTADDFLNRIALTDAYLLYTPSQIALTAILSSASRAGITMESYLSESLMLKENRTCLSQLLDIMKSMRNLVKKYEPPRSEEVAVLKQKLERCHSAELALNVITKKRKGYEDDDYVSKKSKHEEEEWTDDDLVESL
Sequence of CDK7HMAT1 (P51948 whole entry partner): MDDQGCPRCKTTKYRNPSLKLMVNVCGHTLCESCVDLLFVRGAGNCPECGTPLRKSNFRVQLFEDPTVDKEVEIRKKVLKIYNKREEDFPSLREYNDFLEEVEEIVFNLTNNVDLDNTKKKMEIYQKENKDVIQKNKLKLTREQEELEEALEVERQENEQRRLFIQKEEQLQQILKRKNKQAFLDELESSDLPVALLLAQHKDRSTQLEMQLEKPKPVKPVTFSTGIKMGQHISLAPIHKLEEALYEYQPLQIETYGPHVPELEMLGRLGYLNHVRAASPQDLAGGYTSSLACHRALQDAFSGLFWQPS
Sequence of CDK9/CyclinT1 (P50750 whole entry, species assumed): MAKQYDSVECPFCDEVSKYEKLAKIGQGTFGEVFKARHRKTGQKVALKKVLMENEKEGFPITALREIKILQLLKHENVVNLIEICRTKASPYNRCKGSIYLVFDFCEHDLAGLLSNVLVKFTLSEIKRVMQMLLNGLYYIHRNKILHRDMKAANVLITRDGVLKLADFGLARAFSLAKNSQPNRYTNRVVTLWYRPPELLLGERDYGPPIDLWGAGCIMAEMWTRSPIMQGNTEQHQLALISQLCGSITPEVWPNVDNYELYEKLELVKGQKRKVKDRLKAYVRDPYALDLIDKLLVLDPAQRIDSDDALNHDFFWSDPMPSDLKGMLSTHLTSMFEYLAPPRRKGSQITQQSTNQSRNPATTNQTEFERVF
Sequence of CDK9/CyclinT1 (O60563 whole entry partner, species assumed): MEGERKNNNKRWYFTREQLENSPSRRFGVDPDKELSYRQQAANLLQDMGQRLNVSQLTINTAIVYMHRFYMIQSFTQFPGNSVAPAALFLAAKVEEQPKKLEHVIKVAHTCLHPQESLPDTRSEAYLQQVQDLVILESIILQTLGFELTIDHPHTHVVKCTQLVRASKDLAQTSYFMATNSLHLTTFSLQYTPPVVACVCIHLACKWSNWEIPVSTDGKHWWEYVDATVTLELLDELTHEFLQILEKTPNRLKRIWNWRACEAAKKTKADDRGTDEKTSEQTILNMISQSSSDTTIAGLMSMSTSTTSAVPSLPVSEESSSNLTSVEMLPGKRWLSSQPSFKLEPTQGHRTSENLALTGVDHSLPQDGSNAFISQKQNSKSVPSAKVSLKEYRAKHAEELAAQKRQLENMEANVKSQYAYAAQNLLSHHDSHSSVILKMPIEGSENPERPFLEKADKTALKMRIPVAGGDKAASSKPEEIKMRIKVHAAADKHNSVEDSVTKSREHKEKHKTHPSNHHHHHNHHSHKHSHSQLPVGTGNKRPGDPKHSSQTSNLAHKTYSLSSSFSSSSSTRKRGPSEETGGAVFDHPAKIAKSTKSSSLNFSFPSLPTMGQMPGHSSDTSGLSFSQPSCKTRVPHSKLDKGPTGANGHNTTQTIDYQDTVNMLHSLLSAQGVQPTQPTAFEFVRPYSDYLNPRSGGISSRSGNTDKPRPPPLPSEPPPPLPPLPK
Sequence of CDK4/D1 (P11802 whole entry, species assumed): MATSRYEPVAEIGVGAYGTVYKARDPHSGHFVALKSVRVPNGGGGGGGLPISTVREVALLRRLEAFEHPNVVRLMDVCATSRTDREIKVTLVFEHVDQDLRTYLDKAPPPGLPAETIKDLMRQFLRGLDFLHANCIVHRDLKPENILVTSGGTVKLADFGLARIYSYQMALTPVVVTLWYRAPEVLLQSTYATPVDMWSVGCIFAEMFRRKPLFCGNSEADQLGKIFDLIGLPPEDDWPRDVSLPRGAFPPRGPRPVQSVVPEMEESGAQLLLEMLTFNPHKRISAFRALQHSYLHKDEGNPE
Sequence of CDK4/D1 (P24385 whole entry partner, species assumed): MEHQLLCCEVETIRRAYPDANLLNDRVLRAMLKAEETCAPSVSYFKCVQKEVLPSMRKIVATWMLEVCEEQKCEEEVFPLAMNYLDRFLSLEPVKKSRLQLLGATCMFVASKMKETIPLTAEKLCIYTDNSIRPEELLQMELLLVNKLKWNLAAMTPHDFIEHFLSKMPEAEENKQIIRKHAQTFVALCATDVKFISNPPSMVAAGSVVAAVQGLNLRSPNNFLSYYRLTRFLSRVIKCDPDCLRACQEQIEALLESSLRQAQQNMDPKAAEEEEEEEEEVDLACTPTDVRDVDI

SMILES | Ki (FLT3(ITD)) [µM] | GI50 (U937) [µM] | GI50 (MV-4-11) [µM] | remaining activity at 1 µM (CDK4/D1) [%] | remaining activity at 1 µM (CDK9/CyclinT1) [%] | remaining activity at 1 µM (CDK6/D3) [%] | activity (CDK7HMAT1; 1 µM) [%] | activity (CDK2E1) [%] | activity (CDK1B; 1 µM) [%] | remaining activity at 10 µM (CDK4/D1) [%] | Ki (CDK9/CyclinT1) [µM] | remaining activity at 10 µM (CDK6/D3) [%] | activity (CDK7HMAT1; 10 µM) [%] | activity (CDK1B; 10 µM) [%] | remaining activity at 10 µM (CDK9/CyclinT1; compound at 10 μM, read-out: residual enzymatic activity (%) at 10 μM) [%] | Ki (CDK6/D3; apparent Ki calculated from Km (ATP) and IC50, read-out: CDK inhibition Ki) [µM]
CC(=O)N1CCN(c2ccc(Nc3nccc(-c4cnc5ccc(-c6cnn(C(F)F)c6)cn45)n3)nc2)CC1 [Cmpd 59] | 0.018 | 0.462 | 0.008 | – | – | – | – | – | – | – | – | – | – | – | – | –
Cc1ccc(Nc2nccc(-c3cnc4ccccn34)n2)nc1 [Cmpd 55, 4-(Imidazo[1,2-a]pyridin-3-yl)-N-(5-methylpyridin-2-yl)pyrimidin-2-amine] | 0.044 | 0.471 | 0.049 | – | – | – | – | – | – | – | – | – | – | – | – | –
CC(=O)N1CCN(c2ccc(Nc3nccc(-c4cnc5ccc(-c6cnn(C)c6)cn45)n3)nc2)CC1 [Cmpd 27, 1-(4-(6-((4-(6-(1-Methyl-1H-pyrazol-4-yl)imidazo[1,2-a]pyridin-3-yl)pyrimidin-2-yl)amino)pyridin-3-yl)piperazin-1-yl)ethan-1-one] | – | 0.883 | 0.002 | 70 | 31 | 70 | 93 | 89 | 88 | – | – | – | – | – | – | –
CC(=O)N1CCN(c2ccc(Nc3nccc(-c4cnc5ccc(-c6cccc7[nH]ccc67)cn45)n3)nc2)CC1 [Cmpd 36, 1-(4-(6-((4-(6-(1H-Indol-4-yl)imidazo[1,2-a]pyridin-3-yl)pyrimidin-2-yl)amino)pyridin-3-yl)piperazin-1-yl)ethan-1-one] | – | 1.36 | 0.012 | 58 | 99 | 76 | 96 | 89 | 96 | – | – | – | – | – | – | –
CC(=O)N1CCN(c2ccc(Nc3nccc(-c4cnc5ccc(-c6cn(C)c7ccccc67)cn45)n3)nc2)CC1 [Cmpd 40, 1-(4-(6-((4-(6-(1-Methyl-1H-indol-3-yl)imidazo[1,2-a]pyridin-3-yl)pyrimidin-2-yl)amino)pyridin-3-yl)piperazin-1-yl)ethan-1-one] | – | 1.34 | 0.001 | 55 | 82 | 78 | 104 | 93 | 97 | – | – | – | – | – | – | –
CC(=O)N1CCN(c2ccc(Nc3nccc(-c4cnc5ccc(-c6csc7ccccc67)cn45)n3)nc2)CC1 [Cmpd 35, 1-(4-(6-((4-(6-(Benzo[b]thiophen-3-yl)imidazo[1,2-a]pyridin-3-yl)pyrimidin-2-yl)amino)pyridin-3-yl)piperazin-1-yl)ethan-1-one] | – | > 10 | 0.007 | 77 | 91 | 76 | 81 | 100 | 81 | – | – | – | – | – | – | –
CC(=O)N1CCN(c2ccc(Nc3ncc(F)c(-c4cnc5ccc(F)cn45)n3)nc2)CC1 [Cmpd 30, 1-(4-(6-((5-Fluoro-4-(6-fluoroimidazo[1,2-a]pyridin-3-yl)pyrimidin-2-yl)amino)pyridin-3-yl)piperazin-1-yl)ethan-1-one] | – | 4.04 | 0.072 | 55 | 33 | 58 | 77 | 51 | 96 | – | – | – | – | – | – | –
CC(=O)N1CCN(c2ccc(Nc3nccc(-c4cnc5ccc(F)cn45)n3)nc2)CC1 [Cmpd 8, 1-(4-(6-((4-(6-Fluoroimidazo[1,2-a]pyridin-3-yl)pyrimidin-2-yl)amino)pyridin-3-yl)piperazin-1-yl)ethan-1-one] | – | 1.41 | 0.03 | – | – | – | – | 59 | – | 27 | 0.289 | 40 | 82 | 27 | – | –
CC(=O)N1CCN(c2ccc(Nc3nccc(-c4cnc5ccc(-c6ccsc6)cn45)n3)nc2)CC1 [Cmpd 26, 1-(4-(6-((4-(6-(Thiophen-3-yl)imidazo[1,2-a]pyridin-3-yl)pyrimidin-2-yl)amino)pyridin-3-yl)piperazin-1-yl)ethan-1-one] | – | 0.538 | 0.004 | 73 | 36 | 73 | 83 | 73 | 95 | – | – | – | – | – | – | –
CC(=O)N1CCCN(c2ccc(Nc3nccc(-c4cnc5ccccn45)n3)nc2)CC1 [Cmpd 6, 1-(4-(6-((4-(Imidazo[1,2-a]pyridin-3-yl)pyrimidin-2-yl)amino)pyridin-3-yl)-1,4-diazepan-1-yl)ethan-1-one] | – | 11.4 | 0.035 | – | – | – | – | 85 | – | 48 | 1.38 | 24 | 70 | 50 | – | –
CC(=O)N1CCN(c2ccc(Nc3nccc(-c4cnc5ccc(C(F)(F)F)cn45)n3)nc2)CC1 [Cmpd 11, 1-(4-(6-((4-(6-(Trifluoromethyl)imidazo[1,2-a]pyridin-3-yl)pyrimidin-2-yl)amino)pyridin-3-yl)piperazin-1-yl)ethan-1-one] | – | 3.9 | 0.014 | – | – | – | – | 97 | – | 46 | – | – | 60 | 38 | 32 | > 5
CC(=O)N1CCN(c2ccc(Nc3nccc(-c4cnc5ccc(-c6cn(S(=O)(=O)c7ccccc7)c7ccccc67)cn45)n3)nc2)CC1 [Cmpd 34, 1-(4-(6-((4-(6-(1-(Phenylsulfonyl)-1H-indol-3-yl)imidazo[1,2-a]pyridin-3-yl)pyrimidin-2-yl)amino)pyridin-3-yl)piperazin-1-yl)ethan-1-one] | – | 2.49 | 0.066 | 55 | 100 | 77 | 80 | 75 | 99 | – | – | – | – | – | – | –
CC(=O)N1CCN(c2ccc(Nc3nccc(-c4cnc5ccc(-c6cc7ccccc7[nH]6)cn45)n3)nc2)CC1 [Cmpd 37, 1-(4-(6-((4-(6-(1H-Indol-2-yl)imidazo[1,2-a]pyridin-3-yl)pyrimidin-2-yl)amino)pyridin-3-yl)piperazin-1-yl)ethan-1-one] | – | 2.42 | 0.01 | 78 | 39 | 78 | 103 | 91 | 96 | – | – | – | – | – | – | –
CC(=O)N1CCN(c2ccc(Nc3ncc(F)c(-c4cnc5ccc(C(F)(F)F)cn45)n3)nc2)CC1 [Cmpd 32, 1-(4-(6-((5-Fluoro-4-(6-(trifluoromethyl)imidazo[1,2-a]pyridin-3-yl)pyrimidin-2-yl)amino)pyridin-3-yl)piperazin-1-yl)ethan-1-one] | – | 0.821 | 0.024 | 67 | 82 | 70 | 84 | 65 | 93 | – | – | – | – | – | – | –
CC(=O)N1CCN(c2ccc(Nc3nccc(-c4cnc5ccc(-c6cc7ccccc7s6)cn45)n3)nc2)CC1 [Cmpd 22, 1-(4-(6-((4-(6-(Benzo[b]thiophen-2-yl)imidazo[1,2-a]pyridin-3-yl)pyrimidin-2-yl)amino)pyridin-3-yl)piperazin-1-yl)ethan-1-one] | – | > 10 | 0.002 | – | – | – | – | 83 | – | 64 | > 5 | 102 | 106 | 100 | – | –
